From patent US5912259A, “Method for treating and preventing neurodegenerative disorders by administering a thiazolidinone” (Warner-Lambert Company, priority 1998, dated 1999)
Where two headings read alike, the source gives them in different places.

Columns and labels:
[1] = system: experimental autoimmune encephalomyelitis (EAE); experiment: Experimental autoimmune encephalomyelitis (EAE) in mice, Experiment 2; type: in vivo, mouse, PL/J(F1)×SJL/J; settings: sensitized
Protocol: The thiazolidinone was evaluated in a mouse model of experimental autoimmune encephalomyelitis (EAE). The compound was administered orally to mice sensitized with a fragment of mouse myelin basic protein to induce EAE. Two experiments were conducted using the same protocol and neurological evaluations. Test animals were dosed for 21 days, beginning 4 hours before sensitization on Day 1. The effects of the thiazolidinone were compared to a control group of mice sensitized identically and dosed with vehicle alone. Neurological evaluations continued after cessation of drug treatment. The values reported in Tables 1 and 2 below include responses during drug treatment only.
The thiazolidinone was homogenized manually with an aliquot of warm vehicle (0.5% hydroxypropyl methylcellulose with 0.2% Tween 80in water) in glass mortar tubes and homogenizing pestle. The smooth drug paste was gradually suspended in vehicle. Mice were dosed with drug and/or vehicle, […] in groups of ten (Experiment 1) or twenty (Experiment 2). Mice were dosed from Experiment Day 1 to Day 21. A sham-sensitized group was similarly dosed with vehicle or thiazolidinone 30 mg/kg (Experiment 1).
Female mice, strain PL/J(F1)×SJL/J from Jackson Labs, were sensitized s.c. (0.05 cc×2) at the base of the tail with an emulsion containing equal parts of mouse myelin basic protein (MBP) fragment (amino acids 1-9 of the N-terminus of MBP) in saline and Difco Complete Freund's Adjuvant (CFA) fortified with heat killed desiccated Mycobacteria tuberculosis (MT). Each mouse received 300 μg of the MBP fragment (230 μg free base) and 200 μg MT followed by retrobulbar (i.v.) injection of 200 ng of B. pertussis toxin in 0.2 cc of saline. Forty-eight hours later, mice received a second injection of B. pertussis toxin. Mice in Experiment 1 were 8 to 9 weeks old; mice in Experiment 2 were 11 weeks old.
Animals were weighed and evaluated for symptoms of EAE before sensitization and frequently for 21 days. EAE score: (0.5=slight limp tail, 1=limp tail or slow to right, 1.5=slight limp tail and slow to right, 2=paresis/mild paralysis or incontinence, 2.5=mild paralysis and slow to right or complete paralysis (one hind limb), 3=hind limb paralysis (both), 3.5=hind limb paralysis (both) and limp torso; 4=additional fore limb paralysis, 4.5=head movement only, 5=moribund, death after previous EAE symptoms). Evaluators were blinded as to drug treatments and previous behavioral scores.
Disease symptoms were compared among groups for EAE severity, incidence, time to onset, cumulative score, deaths, and weight loss. Peak EAE score: the mean of highest score of each mouse in a group, independent of duration of symptoms; EAE incidence: the mean number of mice showing symptoms of EAE, defined as having EAE scores on any three consecutive days that total≥3.0. EAE deaths: An animal that died must have presented previous evidence of an EAE score greater than 0.5; EAE onset: the first of a 3-day series scoring a total of≥3.0. A Cumulative EAE score is calculated for each animal. A mean of all animals' cumulative score is then determined for each day. Maximum weight loss: the mean of the lowest weight for each animal in a group. (Note: The Cumulative EAE score and the Maximum weight loss can be influenced by death which eliminates severely diseased animals. The number of days that animals are scored also affects the cumulative score and can only be compared "within-trial"). Mice that die from dosing trauma or with no previous symptoms of EAE are deleted from the study. Experimental groups were assumed to be similar and were compared for statistical significance by a two-tailed t-test (p≤0.05).
The previous study was repeated with three larger groups of sensitized mice treated with (1) vehicle, (2) thiazolidinone at 10 mg/kg, or (3) thiazolidinone at 30 mg/kg.

IL-1β = experiment: Production of cytokine IL-1β; type: cell-based
[2] = Toxicology studies in rats; type: in vivo, rat
Protocol: As noted above, the thiazolidinone is additionally well-suited to treating elderly patients because of its long duration of action and its substantial lack of undesirable side effects. Toxicologic properties of the thiazolidinone were evaluated in single-dose oral and intravenous (IV) studies in mice and rats and multidose oral studies in rats and dogs. The thiazolidinone was tested in dogs and monkeys in escalating-dose oral toxicity to determine the most sensitive nonrodent species. […] The initial 13-week dog study was repeated to evaluate the reproducibility of the perivascular effects. Dose range-finding studies were performed in pregnant rats and rabbits, and genotoxic potential was assessed in vitro and in vivo. […] Based on exposure at the no-effect dose in definitive studies, the rat appears to be the most sensitive species followed by the dog and the monkey, albeit with minor differences in exposure between the species.

NMDA-induced injury = settings: for percent protection against NMDA-induced injury: 15 minutes and 2.25 hours after NMDA
Protocol: Intrastriatal injections of NMDA (15 nmol/0.5 μL) were performed in male and female Sprague-Dawley rat pups (Charles River Laboratory, Portage, Mich.) on Postnatal Day (PND) 7. The animals were anesthetized with ether, and the calvarium was exposed by a midline incision through the skin. The rat pups were placed in a plaster of paris mold that was secured to a small animal stereotaxic instrument (Kopf Instruments). NMDA (Sigma) was dissolved in 0.1 M phosphate-buffered saline (PBS) adjusted to pH 7.4 with 1 N NaOH. Injections of NMDA ([…]) were placed in the middle of the right posterior corpus striatum (coordinates relative to Bregma; AP -2.0 mm, ML 2.5 mm, at a depth of 4.0 mm from the dura) with a 26-gauge Hamilton syringe. The syringe was left in place for 2 minutes following the injections to limit leakage. Temperature of the animals was kept constant after surgery in a thermostatically controlled environment (HovaBator chick incubator; BFG Corp., Savannah, Ga.) set at 35° C. to 36° C. for 1 hour after the last drug or vehicle injection. Drug solutions were prepared in PBS and injected intraperitoneally (0.05 mL volume) 15 minutes, and 2.25 hours after intrastriatal injection of NMDA. Control animals received equal volumes of PBS.
After surgery, all animals were returned to the mothers for 5 days, and decapitated on PND 12. The brains were removed, the cerebral hemispheres were separated, and wet weights of each hemisphere were determined individually. Differences of the hemispheric weights were compared for each animal using the formula: 100×(C-I/C)=percent damage, a value that indicates the severity of damage of the injected (I) cerebral hemisphere relative to that of the uninjected contralateral (C) hemisphere. Percent protection is used to indicate the relative protection of the neuroprotective compound compared to the control and was calculated as: 100×[1-(% damagetreated /% damagecontrol)]. Data were expressed as mean percent damage±S.E.M. in all groups. Independent t-tests were used for statistical comparisons.

[3] = rats, definitive 13-week studies

Which “Cumulative Score” value ([1]; 10 mg/kg oral) does the source give for `CC(C)(C)c1cc(/C=C2\SC(N)=NC2=O)cc(C(C)(C)C)c1O` [CI-1004, (Z)-5-[[3,5-bis(1,1-dimethylethyl)-4-hydroxyphenyl]methylene]-2-imino-4-thiazolidinone methanesulfonate] here?
The value was 31.3 ± 3.6.

And the Deaths ([1]; 10 mg/kg oral)?
Its Deaths is 10/20.

And the “EAE Incidence” value ([1]; 10 mg/kg oral)?
Its value is 19/19.

What about the “EAE Onset” value ([1]; 10 mg/kg oral) of the same molecule?
Its value is 11.8 days.

And the “EAE Peak Score” value ([1]; 10 mg/kg oral)?
Its value is 4.5 ± 0.7.

What about the “Cumulative Score” value ([1]; 30 mg/kg oral) of the same molecule?
Its value is 28.9 ± 2.7.

What about the Deaths ([1]; 30 mg/kg oral) of the same molecule?
Its Deaths is 8/20.

What about the “EAE Incidence” value ([1]; 30 mg/kg oral) of the same molecule?
Its value is 20/20.

And the “EAE Onset” value ([1]; 30 mg/kg oral)?
Its value is 12.4 days.

And the “EAE Peak Score” value ([1]; 30 mg/kg oral)?
The value was 4.3 ± 0.2.

What about the “daily EAE score or overall EAE responses” value ([1]; 10 or 30 mg/kg) of the same molecule?
Its value is “no effect on the daily EAE score or overall EAE responses”.

What about the “production of cytokine IL-1β” value (IL-1β) of the same molecule?
The value was “blocks production of the cytokine IL-1β”.

What about the renal effects ([2]; female rats, 10 mg/kg) of the same molecule?
Its renal effects is “Renal effects were seen”.

What about the toxic effects ([2]; male rats, 10 mg/kg) of the same molecule?
The toxic effects was “No effects were observed”.

What about the hepatic enzyme induction ([2]; rats) of the same molecule?
Its hepatic enzyme induction is “hepatic enzyme induction which was not associated with overt organ toxicity”.

And the gastrointestinal effects [2, 3]?
The gastrointestinal effects was “gastrointestinal effects”.

What about the renal effects [2, 3] of the same molecule?
Its renal effects is “minor renal effects”.

And the “percent protection against NMDA-induced injury” value (NMDA-induced injury; 2×10 mg/kg i.p., p<0.04)?
The value was 28.1±9.2%.

What about the “percent protection against NMDA-induced injury” value (NMDA-induced injury; 2×30 mg/kg i.p., p<0.001) of the same molecule?
The value was 49±8.2%.

And the “survival to PND 12” value (NMDA-induced injury; rat, in vivo, 30 mg/kg)?
Its value is “One animal dosed with thiazolidinone (2×30 mg/kg) did not survive to PND 12”.
